# Test results as given in ChEMBL document CHEMBL1201862, “PubChem BioAssay data set” (2004).
#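 In this assay, cells in 96-well plates receive the compound at five concentrations for 48 hours. Endpoints are linearly interpolated between the surrounding concentrations. Here, GI50 denotes the concentration required for 50% inhibition of growth.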 Activity calls are given as the source filed them. No stated cut-off is given here; in the data, active = GI50 up to about 1.1 µM and inactive = higher.
# Columns and labels:
# Assay in all cases: NCI anticancer screen, dose series, 48 h
# IGROV-1 = system: IGROV-1
# MDA-N = system: MDA-N
# NCI-H23 = system: NCI-H23
# SR = system: SR
# 786-0 = system: 786-0
# MDA-MB-435 = system: MDA-MB-435
# HL-60 = system: HL-60
# LOX IMVI = system: LOX IMVI
# ACHN = system: ACHN
# A498 = system: A498
# UACC-257 = system: UACC-257
# HCT-15 = system: HCT-15
# SN12C = system: SN12C
# SF-539 = system: SF-539
# M14 = system: M14
# HOP-92 = system: HOP-92
# A549 = system: A549
# COLO 205 = system: COLO 205
# HCC 2998 = system: HCC 2998
# RPMI-8226 = system: RPMI-8226
# U-251 = system: U-251
# SW-620 = system: SW-620
# TK-10 = system: TK-10
# NCI-H460 = system: NCI-H460
# OVCAR-3 = system: OVCAR-3
# NCI/ADR-RES = system: NCI/ADR-RES
# HCT-116 = system: HCT-116
# OVCAR-8 = system: OVCAR-8
# NCI-H522 = system: NCI-H522
# CCRF-CEM = system: CCRF-CEM
# Malme-3M = system: Malme-3M
# DU-145 = system: DU-145
# MOLT-4 = system: MOLT-4
# EKVX = system: EKVX
# UACC-62 = system: UACC-62
# K562 = system: K562
# NCI-H226 = system: NCI-H226
# MDA-MB-231 = system: MDA-MB-231
# SK-MEL-2 = system: SK-MEL-2
# SK-OV-3 = system: SK-OV-3
# OVCAR-4 = system: OVCAR-4
# KM12 = system: KM12
# PC-3 = system: PC-3
# OVCAR-5 = system: OVCAR-5
# CAKI-1 = system: CAKI-1
# MCF7 = system: MCF7
# UO-31 = system: UO-31
# RXF 393 = system: RXF 393
# SF-295 = system: SF-295
# SK-MEL-5 = system: SK-MEL-5
# SF-268 = system: SF-268
# SK-MEL-28 = system: SK-MEL-28
# SNB-19 = system: SNB-19
# T47D = system: T47D
# SNB-75 = system: SNB-75
# Hs-578T = system: Hs-578T
# HT-29 = system: HT-29
# HOP-62 = system: HOP-62
structure (smiles),measurement,setting,value
O=C(Cc1cccs1)N[C@@H]1C(=O)N2C(C(=O)OC(c3ccccc3)c3ccccc3)=C(CO)CS[C@H]12,GI50,IGROV-1,29.9 µM (inactive)
same,GI50,MDA-N,> 100 µM (inactive)
same,GI50,NCI-H23,46 µM (inactive)
same,GI50,SR,47.4 µM (inactive)
same,GI50,786-0,> 100 µM (inactive)
same,GI50,MDA-MB-435,65.9 µM (inactive)
same,GI50,HL-60,46.6 µM (inactive)
same,GI50,LOX IMVI,> 100 µM (inactive)
same,GI50,ACHN,91.8 µM (inactive)
same,GI50,A498,> 100 µM (inactive)
same,GI50,UACC-257,> 100 µM (inactive)
same,GI50,HCT-15,92.7 µM
same,GI50,SN12C,> 100 µM (inactive)
same,GI50,SF-539,> 100 µM (inactive)
same,GI50,M14,> 100 µM (inactive)
same,GI50,HOP-92,> 100 µM (inactive)
same,GI50,A549,> 100 µM (inactive)
same,GI50,COLO 205,> 100 µM (inactive)
same,GI50,HCC 2998,52.8 µM (inactive)
same,GI50,RPMI-8226,96.2 µM (inactive)
same,GI50,U-251,> 100 µM (inactive)
same,GI50,SW-620,> 100 µM (inactive)
same,GI50,TK-10,> 100 µM (inactive)
same,GI50,NCI-H460,75.2 µM (inactive)
same,GI50,OVCAR-3,> 100 µM (inactive)
same,GI50,NCI/ADR-RES,96.6 µM (inactive)
same,GI50,HCT-116,> 100 µM (inactive)
same,GI50,OVCAR-8,> 100 µM (inactive)
same,GI50,NCI-H522,16.8 µM (inactive)
same,GI50,CCRF-CEM,20 µM (inactive)
same,GI50,Malme-3M,40.7 µM (inactive)
same,GI50,DU-145,> 100 µM (inactive)
same,GI50,MOLT-4,> 100 µM (inactive)
same,GI50,EKVX,> 100 µM (inactive)
same,GI50,UACC-62,> 100 µM (inactive)
same,GI50,K562,> 100 µM (inactive)
same,GI50,NCI-H226,0.0283 µM (active)
same,GI50,MDA-MB-231,> 100 µM (inactive)
same,GI50,SK-MEL-2,> 100 µM (inactive)
same,GI50,SK-OV-3,> 100 µM (inactive)
same,GI50,OVCAR-4,74.3 µM (inactive)
same,GI50,KM12,38.1 µM (inactive)
same,GI50,PC-3,> 100 µM (inactive)
same,GI50,OVCAR-5,> 100 µM (inactive)
same,GI50,CAKI-1,> 100 µM (inactive)
same,GI50,MCF7,> 100 µM (inactive)
same,GI50,UO-31,17.9 µM (inactive)
same,GI50,RXF 393,> 100 µM (inactive)
same,GI50,SF-295,> 100 µM (inactive)
same,GI50,SK-MEL-5,> 100 µM (inactive)
CC(=O)O[C@H]1C(=O)[C@@]2(C)C(C(OC(=O)c3ccccc3)[C@]3(O)CC(OC(=O)[C@H](OC(=O)CCC(=O)O)C(NC(=O)c4ccccc4)c4ccccc4)C(C)=C1C3(C)C)C1(OC(C)=O)COC1C[C@@H]2OC(=O)CCC(=O)O (some centres undefined),GI50,OVCAR-4,> 50.6 µM (inactive)
same,GI50,UO-31,79.1 µM (inactive)
COc1cc2c(cc1OCCCOc1cc(-c3ccc(F)cc3)nc(C)n1)N=C[C@@H]1CCCN1C2=O,GI50,IGROV-1,19.2 µM (inactive)
same,GI50,NCI-H23,15.1 µM (inactive)
same,GI50,SR,10.4 µM (inactive)
same,GI50,SF-268,17.2 µM (inactive)
same,GI50,786-0,16.7 µM (inactive)
same,GI50,MDA-MB-435,15.2 µM (inactive)
same,GI50,HL-60,24.9 µM (inactive)
same,GI50,LOX IMVI,13.6 µM (inactive)
same,GI50,ACHN,16.1 µM (inactive)
same,GI50,A498,12.7 µM (inactive)
same,GI50,UACC-257,17.3 µM (inactive)
same,GI50,SK-MEL-28,20.7 µM (inactive)
same,GI50,HCT-15,12.6 µM
same,GI50,SNB-19,20.1 µM (inactive)
same,GI50,T47D,25.8 µM (inactive)
same,GI50,SN12C,16.5 µM (inactive)
same,GI50,SF-539,16.6 µM (inactive)
same,GI50,M14,15.5 µM (inactive)
same,GI50,HOP-92,27.4 µM (inactive)
same,GI50,A549,18.2 µM (inactive)
same,GI50,COLO 205,29.1 µM (inactive)
same,GI50,HCC 2998,> 10 µM (inactive)
same,GI50,RPMI-8226,26.1 µM (inactive)
same,GI50,U-251,14.8 µM (inactive)
same,GI50,SNB-75,19.1 µM (inactive)
same,GI50,SW-620,22.9 µM (inactive)
same,GI50,TK-10,18.1 µM (inactive)
same,GI50,NCI-H460,> 100 µM (inactive)
same,GI50,OVCAR-3,15.2 µM (inactive)
same,GI50,HCT-116,16.9 µM (inactive)
same,GI50,Hs-578T,24.7 µM (inactive)
same,GI50,OVCAR-8,24.5 µM (inactive)
same,GI50,NCI-H522,14.6 µM (inactive)
same,GI50,CCRF-CEM,15.8 µM (inactive)
same,GI50,Malme-3M,12.8 µM (inactive)
same,GI50,DU-145,9.06 µM (inactive)
same,GI50,MOLT-4,14.3 µM (inactive)
same,GI50,EKVX,18.9 µM (inactive)
same,GI50,UACC-62,14.5 µM (inactive)
same,GI50,NCI-H226,15.2 µM (inactive)
same,GI50,MDA-MB-231,13.8 µM (inactive)
same,GI50,SK-MEL-2,17.2 µM (inactive)
same,GI50,SK-OV-3,25.6 µM (inactive)
same,GI50,OVCAR-4,33.5 µM (inactive)
same,GI50,HT-29,23.1 µM (inactive)
same,GI50,KM12,19.3 µM (inactive)
same,GI50,CAKI-1,17.5 µM (inactive)
same,GI50,MCF7,29.4 µM (inactive)
same,GI50,UO-31,17.7 µM (inactive)
same,GI50,RXF 393,20.2 µM (inactive)
same,GI50,SF-295,16.4 µM (inactive)
same,GI50,SK-MEL-5,15.9 µM (inactive)
COc1ccc(/C=C2\CCC(C)C3=C2N=c2s/c(=C/c4cccc(Br)c4)c(=O)n2C3c2ccc(OC)c(OC)c2)cc1OC (centres undefined),GI50,IGROV-1,> 100 µM (inactive)
same,GI50,MDA-N,> 100 µM (inactive)
same,GI50,SR,> 100 µM (inactive)
same,GI50,SF-268,> 100 µM (inactive)
same,GI50,786-0,> 100 µM (inactive)
same,GI50,MDA-MB-435,> 100 µM (inactive)
same,GI50,HL-60,> 100 µM (inactive)
same,GI50,LOX IMVI,> 100 µM (inactive)
same,GI50,ACHN,> 100 µM (inactive)
same,GI50,A498,> 100 µM (inactive)
same,GI50,UACC-257,> 100 µM (inactive)
same,GI50,SK-MEL-28,> 100 µM (inactive)
same,GI50,HCT-15,> 100 µM
same,GI50,SNB-19,> 100 µM (inactive)
same,GI50,SN12C,> 100 µM (inactive)
same,GI50,M14,> 100 µM (inactive)
same,GI50,HOP-92,> 100 µM (inactive)
same,GI50,A549,> 100 µM (inactive)
same,GI50,RPMI-8226,> 100 µM (inactive)
same,GI50,U-251,> 100 µM (inactive)
same,GI50,SW-620,> 100 µM (inactive)
same,GI50,TK-10,> 100 µM (inactive)
same,GI50,HOP-62,> 100 µM (inactive)
same,GI50,HCT-116,> 100 µM (inactive)
same,GI50,Hs-578T,> 100 µM (inactive)
same,GI50,OVCAR-8,> 100 µM (inactive)
same,GI50,CCRF-CEM,> 100 µM (inactive)
same,GI50,DU-145,> 100 µM (inactive)
same,GI50,MOLT-4,> 100 µM (inactive)
same,GI50,EKVX,> 100 µM (inactive)
same,GI50,UACC-62,> 100 µM (inactive)
same,GI50,K562,> 100 µM (inactive)
same,GI50,MDA-MB-231,> 100 µM (inactive)
same,GI50,SK-MEL-2,> 100 µM (inactive)
same,GI50,SK-OV-3,> 100 µM (inactive)
same,GI50,OVCAR-4,> 100 µM (inactive)
same,GI50,HT-29,> 100 µM (inactive)
same,GI50,KM12,> 100 µM (inactive)
same,GI50,PC-3,> 100 µM (inactive)
same,GI50,OVCAR-5,> 100 µM (inactive)
same,GI50,CAKI-1,> 100 µM (inactive)
same,GI50,MCF7,> 100 µM (inactive)
same,GI50,RXF 393,> 100 µM (inactive)
same,GI50,SK-MEL-5,> 100 µM (inactive)
CCc1nc(N)nc(N)c1-c1ccc(Cl)c(N=[N+]=[N-])c1,GI50,NCI-H23,4.03 µM (inactive)
same,GI50,SF-268,9.35 µM (inactive)
same,GI50,786-0,3.44 µM (inactive)
same,GI50,MDA-MB-435,2.84 µM (inactive)
same,GI50,LOX IMVI,2.21 µM (inactive)
same,GI50,A498,8.39 µM (inactive)
same,GI50,SK-MEL-28,13.5 µM (inactive)
same,GI50,T47D,28.5 µM (inactive)
same,GI50,SN12C,12.6 µM (inactive)
same,GI50,SF-539,4.05 µM (inactive)
same,GI50,HOP-92,20.5 µM (inactive)
same,GI50,COLO 205,7.74 µM (inactive)
same,GI50,HCC 2998,9.62 µM (inactive)
same,GI50,RPMI-8226,8.87 µM (inactive)
same,GI50,U-251,4.69 µM (inactive)
same,GI50,SNB-75,22.1 µM (inactive)
same,GI50,SW-620,1.6 µM (inactive)
same,GI50,HOP-62,16.7 µM (inactive)
same,GI50,OVCAR-3,15.6 µM (inactive)
same,GI50,NCI/ADR-RES,5.5 µM (inactive)
same,GI50,HCT-116,0.6 µM (active)
same,GI50,Hs-578T,16.7 µM (inactive)
same,GI50,NCI-H522,9.51 µM (inactive)
same,GI50,DU-145,11.2 µM (inactive)
same,GI50,EKVX,2.75 µM (inactive)
same,GI50,K562,0.37 µM (active)
same,GI50,NCI-H226,22.7 µM (inactive)
same,GI50,MDA-MB-231,15.6 µM (inactive)
same,GI50,SK-MEL-2,14.6 µM (inactive)
same,GI50,SK-OV-3,31 µM (inactive)
same,GI50,OVCAR-4,19.2 µM (inactive)
same,GI50,KM12,7.36 µM (inactive)
same,GI50,OVCAR-5,12.1 µM (inactive)
same,GI50,MCF7,5.48 µM (inactive)
same,GI50,SF-295,2.09 µM (inactive)
same,GI50,SK-MEL-5,2.61 µM (inactive)
